Columns and labels:
[1] = Blood concentration of active enantiomer in dogs, fed vs fasted (HPLC-MSMS, enantioselective column); assay type: in vivo; details: 50 mg/kg
Procedure: To 12 dogs of mixed breed, the racemic compound 5-[5-(3,4,5-trichloro-phenyl)-5-trifluoromethyl-4,5-dihydro-isoxazol-3-yl]-3-methyl-thiophene-2-carboxylic acid [(2,2,2-trifluoro-ethylcarbamoyl)-methyl]-amide was administered in form of a solution at a dose of 50 mg/kg of animal, and the blood concentration of said aryl isoxazoline compound within the dogs was then monitored up to 6 days following the administration.
4 dogs (Group 1) received a full daily ration of pelleted dry food 15 to 30 minutes before the administration of the aryl isoxazoline compound; The Group 2 dogs received an identical ration of pelleted dry feed 30 minutes after the administration of the active ingredient. To the remaining 4 dogs of Group 3, the aryl isoxazoline compound was administered in fasted condition, and they received the identical ration of pelleted dry food only 5 hours following the uptake of the antiparasiticide.
(§1) Analysis of the blood concentration was performed as follows. A blood sample from the animal was subjected to a precipitation step with organic solvent and subsequently cleaned up on a […] solid phase extraction cartridge. The eluate was evaporated to dryness and reconstituted in mobile phase and analyzed on a HPLC-MSMS using an enantioselective column (amylose-based, brand name “Chiralpak”).

[2] = Blood concentration of active enantiomer in cats, fed vs fasted (HPLC-MSMS, enantioselective column); assay type: in vivo; details: 45 mg, fasted Group 2
Procedure: as §1
To 4 cats, each 45 mg of the racemic compound 5-[5-(3,4,5-trichloro-phenyl)-5-trifluoromethyl-4,5-dihydro-isoxazol-3-yl]-3-methyl-thiophene-2-carboxylic acid [(2,2,2-trifluoro-ethylcarbamoyl)-methyl]-amide were administered in form of an oral solution, and the blood concentration of said aryl isoxazoline compound within the cats was then monitored according to the method as described in Example 1 up to 24 days following the administration.
2 cats (Group 1) received a full daily ration of commercial wet food 15 to 30 minutes before the administration of the aryl isoxazoline compound; The two Group 2 cats received an identical ration of wet food only 5 hours following the uptake of the aryl isoxazoline.

Cc1cc(C2=NOC(c3cc(Cl)c(Cl)c(Cl)c3)(C(F)(F)F)C2)sc1C(=O)NCC(=O)NCC(F)(F)F (racemic) [5-[5-(3,4,5-trichloro-phenyl)-5-trifluoromethyl-4,5-dihydro-isoxazol-3-yl]-3-methyl-thiophene-2-carboxylic acid [(2,2,2-trifluoro-ethylcarbamoyl)-methyl]-amide]
Blood concentration of active ingredient, comparison of groups ([1]; Group 1 (fed 15 to 30 minutes before administration)): highest blood concentration of active ingredient
Blood concentration of active ingredient, sufficiency for ectoparasite control ([1]; Group 2 (fed 30 minutes after administration)): allowed effective ectoparasite control as well
Blood concentration of the active enantiomer, sufficiency for ectoparasite control ([1]; Group 3 (fasted, fed 5 hours after)): never reached a level being sufficient for an effective ectoparasite control
Level of active ingredient, sufficiency for ectoparasite control [2]: never reached a level of active ingredient sufficient to provide an effective ectoparasite control

Source: patent publication US20140343085A1, “USE OF ARYL DERIVATIVES FOR CONTROLLING ECTOPARASITES” (Novartis AG, priority 2011, published 2014)
